# Source: patent US20150105252A1, “SUBSTITUTED PYRAZOLES AS HERBICIDES” (E I DU PONT DE NEMOURS AND COMPANY, priority 2013, published 2015)
# Experiments:
# barnyardgrass [1] = test: Test A preemergence; type: in vivo, Echinochloa crus-galli; conditions: preemergence; for Barnyardgrass plant response rating (0 to 100 scale, 0 is no effect, 100 is complete control): 125 g ai/ha, visual injury approx. 10 days after treatment; for Barnyardgrass plant response rating: 500 g ai/ha, visual injury after approx. 10 days, 0 to 100 scale (0 no effect, 100 complete control)
# Procedure, shortened: (§1)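 Seeds were sown in a loam soil–sand blend and given a directed soil spray preemergence; postemergence plants at 2–10 cm, one- to two-leaf stage, were sprayed with compound in non-phytotoxic solvent with surfactant. After about 10 days in a greenhouse, injury was visually rated against untreated controls (0 = no effect, 100 = complete control).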
# foxtail, giant [2] = test: Test A preemergence; type: in vivo, Setaria faberii; conditions: preemergence; for Foxtail, Giant plant response rating (0 to 100 scale): 125 g ai/ha, visual injury approx. 10 days after treatment; for Foxtail, Giant plant response rating: 500 g ai/ha, visual injury after approx. 10 days, 0 to 100 scale (0 no effect, 100 complete control)
# Procedure, shortened: as §1
# corn [3] = test: Test A preemergence; type: in vivo, Zea mays; conditions: preemergence; for Corn plant response rating (0 to 100 scale): 125 g ai/ha, visual injury approx. 10 days after treatment; for Corn plant response rating: 500 g ai/ha, visual injury after approx. 10 days, 0 to 100 scale (0 no effect, 100 complete control)
# Procedure, shortened: as §1
# foxtail, giant [4] = test: Test A postemergence; type: in vivo, Setaria faberii
# Procedure, shortened: as §1
# morningglory = test: Test A postemergence; type: in vivo, Ipomoea spp.; conditions: Postemergence
# Procedure, shortened: as §1
# wheat = test: Test A postemergence; type: in vivo, Triticum aestivum; conditions: Postemergence
# Procedure, shortened: as §1
# corn [5] = test: Test C preemergence; type: in vivo, Zea mays; conditions: preemergence; for Plant response rating, Corn: 125 g ai/ha, scale 0 to 100, 0 = no effect, 100 = complete control
# Procedure, shortened: (§2)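 Visual rating, 0–100 scale (0 no effect, 100 complete control), vs untreated controls after 13–15 d greenhouse. Pre: seeds in loam/sand, treated at sowing. Post: plants in peat-based mix, 1- to 4-leaf (2–18 cm). Solvent + surfactant formulation, non-phytotoxic.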
# crabgrass, large = test: Test C preemergence; type: in vivo, Digitaria sanguinalis; conditions: preemergence; for Plant response rating, Crabgrass, Large: 125 g ai/ha, scale 0 to 100, 0 = no effect, 100 = complete control
# Procedure, shortened: as §2
# foxtail, giant [6] = test: Test C preemergence; type: in vivo, Setaria faberii; conditions: preemergence; for Plant response rating, Foxtail, Giant: 125 g ai/ha, scale 0 to 100, 0 = no effect, 100 = complete control
# Procedure, shortened: as §2
# johnsongrass = test: Test C preemergence; type: in vivo, Sorghum halepense; conditions: preemergence; for Plant response rating, Johnsongrass: 125 g ai/ha, scale 0 to 100, 0 = no effect, 100 = complete control
# Procedure, shortened: as §2
# pigweed = test: Test C preemergence; type: in vivo, Amaranthus retroflexus; conditions: preemergence; for Plant response rating, Pigweed: 125 g ai/ha, scale 0 to 100, 0 = no effect, 100 = complete control
# Procedure, shortened: as §2
# soybean = test: Test C preemergence; type: in vivo, Glycine max; conditions: preemergence; for Plant response rating, Soybean: 125 g ai/ha, scale 0 to 100, 0 = no effect, 100 = complete control
# Procedure, shortened: as §2
# barnyardgrass [7] = test: Test C preemergence; type: in vivo, Echinochloa crus-galli; conditions: preemergence; for Plant response rating, Barnyardgrass: 125 g ai/ha, scale 0 to 100, 0 = no effect, 100 = complete control
# Procedure, shortened: as §2
# waterhemp = test: Test C preemergence; type: in vivo, Amaranthus rudis; conditions: preemergence; for Plant response rating, Waterhemp: 125 g ai/ha, scale 0 to 100, 0 = no effect, 100 = complete control
# Procedure, shortened: as §2
# velvetleaf = test: Test C preemergence; type: in vivo, Abutilon theophrasti; conditions: preemergence; for Plant response rating, Velvetleaf: 125 g ai/ha, scale 0 to 100, 0 = no effect, 100 = complete control
# Procedure, shortened: as §2
# [8] = Postemergence, 500 g ai/ha, 0 to 100 scale (0 no effect, 100 complete control)
# [9] = postemergence, 125 g ai/ha, about 10 days, visual rating on 0 to 100 scale (0 no effect, 100 complete control)
# [10] = 125 g ai/ha, 0 to 100 scale, 0 no effect, 100 complete control
# [11] = 500 g ai/ha, 0 to 100 scale (0 no effect, 100 complete control)
# [12] = 31 g ai/ha, visual rating, scale 0 to 100 (0 no effect, 100 complete control), 13 to 15 days
# [13] = 62 g ai/ha, scale 0 to 100 (0 no effect, 100 complete control), 13 to 15 days
# [14] = 250 g ai/ha, scale 0 to 100, 0 is no effect, 100 is complete control
structure (smiles),measurement,setting,value
CCc1cc(C(=O)NCC2CC2)nn1Cc1ccnc(C(F)(F)F)c1 [Compound 199],"Barnyardgrass plant response rating (0 to 100 scale, 0 is no effect, 100 is complete control)",barnyardgrass [1],100
same,Barnyardgrass plant response rating,barnyardgrass [1],100
same,"Foxtail, Giant plant response rating (0 to 100 scale)","foxtail, giant [2]",100
same,"Foxtail, Giant plant response rating","foxtail, giant [2]",100
same,Corn plant response rating (0 to 100 scale),corn [3],70
same,Corn plant response rating,corn [3],90
same,"Foxtail, Giant plant response rating","foxtail, giant [4]; [8]",90
same,"Foxtail, Giant plant response rating","foxtail, giant [4]; [9]",90
same,Morningglory plant response rating,morningglory; [10],90
same,Morningglory plant response rating,morningglory; [11],100
same,Wheat plant response rating,wheat; [10],70
same,Wheat plant response rating,wheat; [11],80
same,Corn plant response rating,corn [5]; [12],20
same,Corn plant response rating,corn [5]; [13],65
same,"Plant response rating, Corn",corn [5]; 13 to 15 days,75
same,Corn plant response rating,corn [5]; [14],90
same,"Crabgrass, Large plant response rating","crabgrass, large; [12]",98
same,"Crabgrass, Large plant response rating","crabgrass, large; [13]",100
same,"Plant response rating, Crabgrass, Large","crabgrass, large; 13 to 15 days",100
same,"Crabgrass, Large plant response rating","crabgrass, large; [14]",100
same,"Foxtail, Giant plant response rating","foxtail, giant [6]; [12]",100
same,"Foxtail, Giant plant response rating","foxtail, giant [6]; [13]",100
same,"Plant response rating, Foxtail, Giant","foxtail, giant [6]; 13 to 15 days",100
same,"Foxtail, Giant plant response rating","foxtail, giant [6]; [14]",100
same,Johnsongrass plant response rating,johnsongrass; [12],45
same,Johnsongrass plant response rating,johnsongrass; [13],70
same,"Plant response rating, Johnsongrass",johnsongrass; 13 to 15 days,98
same,Johnsongrass plant response rating,johnsongrass; [14],100
same,Pigweed plant response rating,pigweed; [12],100
same,Pigweed plant response rating,pigweed; [13],100
same,"Plant response rating, Pigweed",pigweed; 13 to 15 days,100
same,Pigweed plant response rating,pigweed; [14],100
same,Soybean plant response rating,soybean; [12],30
same,Soybean plant response rating,soybean; [13],55
same,"Plant response rating, Soybean",soybean; 13 to 15 days,90
same,Soybean plant response rating,soybean; [14],95
same,Barnyardgrass plant response rating,barnyardgrass [7]; [12],95
same,Barnyardgrass plant response rating,barnyardgrass [7]; [13],100
same,"Plant response rating, Barnyardgrass",barnyardgrass [7]; 13 to 15 days,100
same,Barnyardgrass plant response rating,barnyardgrass [7]; [14],100
same,Waterhemp plant response rating,waterhemp; [12],98
same,Waterhemp plant response rating,waterhemp; [13],100
same,"Plant response rating, Waterhemp",waterhemp; 13 to 15 days,100
same,Waterhemp plant response rating,waterhemp; [14],100
same,Velvetleaf plant response rating,velvetleaf; [12],40
same,Velvetleaf plant response rating,velvetleaf; [13],100
same,"Plant response rating, Velvetleaf",velvetleaf; 13 to 15 days,100
same,Velvetleaf plant response rating,velvetleaf; [14],100
CCc1cc(C(=O)NC2CC2)nn1Cc1ccnc(OCC(F)(F)F)c1 [Compound 200],"Barnyardgrass plant response rating (0 to 100 scale, 0 is no effect, 100 is complete control)",barnyardgrass [1],90
same,Barnyardgrass plant response rating,barnyardgrass [1],100
same,"Foxtail, Giant plant response rating (0 to 100 scale)","foxtail, giant [2]",100
same,"Foxtail, Giant plant response rating","foxtail, giant [2]",100
same,Corn plant response rating (0 to 100 scale),corn [3],60
same,Corn plant response rating,corn [3],90
same,"Foxtail, Giant plant response rating","foxtail, giant [4]; [8]",100
same,"Foxtail, Giant plant response rating","foxtail, giant [4]; [9]",100
same,Morningglory plant response rating,morningglory; [10],100
same,Morningglory plant response rating,morningglory; [11],100
same,Wheat plant response rating,wheat; [10],40
same,Wheat plant response rating,wheat; [11],100
same,Corn plant response rating,corn [5]; [12],0
same,Corn plant response rating,corn [5]; [13],15
same,"Plant response rating, Corn",corn [5]; 13 to 15 days,35
same,Corn plant response rating,corn [5]; [14],80
same,"Crabgrass, Large plant response rating","crabgrass, large; [12]",100
same,"Crabgrass, Large plant response rating","crabgrass, large; [13]",100
same,"Plant response rating, Crabgrass, Large","crabgrass, large; 13 to 15 days",100
same,"Crabgrass, Large plant response rating","crabgrass, large; [14]",100
same,"Foxtail, Giant plant response rating","foxtail, giant [6]; [12]",75
same,"Foxtail, Giant plant response rating","foxtail, giant [6]; [13]",85
same,"Plant response rating, Foxtail, Giant","foxtail, giant [6]; 13 to 15 days",98
same,"Foxtail, Giant plant response rating","foxtail, giant [6]; [14]",100
same,Johnsongrass plant response rating,johnsongrass; [12],50
same,Johnsongrass plant response rating,johnsongrass; [13],80
same,"Plant response rating, Johnsongrass",johnsongrass; 13 to 15 days,90
same,Johnsongrass plant response rating,johnsongrass; [14],98
same,Pigweed plant response rating,pigweed; [12],100
same,Pigweed plant response rating,pigweed; [13],100
same,"Plant response rating, Pigweed",pigweed; 13 to 15 days,100
same,Pigweed plant response rating,pigweed; [14],100
same,Soybean plant response rating,soybean; [12],50
same,Soybean plant response rating,soybean; [13],70
same,"Plant response rating, Soybean",soybean; 13 to 15 days,70
same,Soybean plant response rating,soybean; [14],85
same,Barnyardgrass plant response rating,barnyardgrass [7]; [12],45
same,Barnyardgrass plant response rating,barnyardgrass [7]; [13],70
same,"Plant response rating, Barnyardgrass",barnyardgrass [7]; 13 to 15 days,90
same,Barnyardgrass plant response rating,barnyardgrass [7]; [14],98
same,Waterhemp plant response rating,waterhemp; [12],100
same,Waterhemp plant response rating,waterhemp; [13],100
same,"Plant response rating, Waterhemp",waterhemp; 13 to 15 days,100
same,Waterhemp plant response rating,waterhemp; [14],100
same,Velvetleaf plant response rating,velvetleaf; [12],40
same,Velvetleaf plant response rating,velvetleaf; [13],70
same,"Plant response rating, Velvetleaf",velvetleaf; 13 to 15 days,100
same,Velvetleaf plant response rating,velvetleaf; [14],100
